Data: PubChem BioAssay (NCI)
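96-well plates; 48 h exposure; 5 concentrations. Endpoints by linear interpolation between flanking doses. Not reached: highest tested concentration assigned. GI50: concentration for 50% inhibition of growth. TGI denotes the concentration required for complete inhibition of growth.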

Key:
Assay in all cases: inhibition of tumour cell growth, NCI panel, 48 h
786-0 renal = test system: 786-0 renal
A498 renal = test system: A498 renal
A549 NSCLC = test system: A549 NSCLC
ACHN renal = test system: ACHN renal
BT-549 breast = test system: BT-549 breast
CAKI-1 renal = test system: CAKI-1 renal
CCRF-CEM leukemia = test system: CCRF-CEM leukemia
COLO 205 colon = test system: COLO 205 colon
DU-145 prostate = test system: DU-145 prostate
EKVX NSCLC = test system: EKVX NSCLC
HCC-2998 colon = test system: HCC-2998 colon
HCT-116 colon = test system: HCT-116 colon
HCT-15 colon = test system: HCT-15 colon
HL-60(TB) leukemia = test system: HL-60(TB) leukemia
HOP-62 NSCLC = test system: HOP-62 NSCLC
HOP-92 NSCLC = test system: HOP-92 NSCLC
HS 578T breast = test system: HS 578T breast
HT29 colon = test system: HT29 colon
IGROV1 ovarian = test system: IGROV1 ovarian
K-562 leukemia = test system: K-562 leukemia
KM12 colon = test system: KM12 colon
LOX IMVI melanoma = test system: LOX IMVI melanoma
M14 melanoma = test system: M14 melanoma
MALME-3M melanoma = test system: MALME-3M melanoma
MCF7 breast = test system: MCF7 breast
MDA-MB-231 breast = test system: MDA-MB-231 breast
MDA-MB-435 = test system: MDA-MB-435
MOLT-4 leukemia = test system: MOLT-4 leukemia
NCI-H226 lung = test system: NCI-H226 lung
NCI-H23 lung = test system: NCI-H23 lung
NCI-H460 lung = test system: NCI-H460 lung
NCI-H522 lung = test system: NCI-H522 lung
NCI/ADR-RES ovarian = test system: NCI/ADR-RES ovarian
OVCAR-3 ovarian = test system: OVCAR-3 ovarian
OVCAR-4 ovarian = test system: OVCAR-4 ovarian
OVCAR-5 ovarian = test system: OVCAR-5 ovarian
OVCAR-8 ovarian = test system: OVCAR-8 ovarian
PC-3 prostate = test system: PC-3 prostate
RPMI-8226 leukemia = test system: RPMI-8226 leukemia
RXF 393 renal = test system: RXF 393 renal
SF-268 CNS = test system: SF-268 CNS
SF-295 CNS = test system: SF-295 CNS
SF-539 CNS = test system: SF-539 CNS
SK-MEL-2 melanoma = test system: SK-MEL-2 melanoma
SK-MEL-28 melanoma = test system: SK-MEL-28 melanoma
SK-OV-3 ovarian = test system: SK-OV-3 ovarian
SN12C renal = test system: SN12C renal
SNB-19 CNS = test system: SNB-19 CNS
SNB-75 CNS = test system: SNB-75 CNS
SR leukemia = test system: SR leukemia
SW-620 colon = test system: SW-620 colon
T-47D breast = test system: T-47D breast
TK-10 renal = test system: TK-10 renal
U251 CNS = test system: U251 CNS
UACC-257 melanoma = test system: UACC-257 melanoma
UACC-62 melanoma = test system: UACC-62 melanoma
UO-31 renal = test system: UO-31 renal

Cn1cc(-c2ccc3c(c2)CCN3C(=O)Cc2cccc(C(F)(F)F)c2)c2c(N)ncnc21
GI50 (786-0 renal): 2.26 µM
TGI (786-0 renal): 17.7 µM
GI50 (A498 renal): 0.453 µM
TGI (A498 renal): 6.56 µM
GI50 (A549 NSCLC): 7.61 µM
TGI (A549 NSCLC): 25.5 µM
GI50 (ACHN renal): 0.871 µM
TGI (ACHN renal): 13.2 µM
GI50 (BT-549 breast): 1.82 µM
TGI (BT-549 breast): 12.4 µM
GI50 (CAKI-1 renal): 1.52 µM
TGI (CAKI-1 renal): 40.3 µM
GI50 (CCRF-CEM leukemia): 3.94 µM
TGI (CCRF-CEM leukemia): > 100 µM
GI50 (COLO 205 colon): 4.23 µM
TGI (COLO 205 colon): 17.9 µM
GI50 (DU-145 prostate): 2.5 µM
TGI (DU-145 prostate): 19.5 µM
GI50 (EKVX NSCLC): 8.7 µM
TGI (EKVX NSCLC): 29 µM
GI50 (HCC-2998 colon): 13.1 µM
TGI (HCC-2998 colon): 28.4 µM
GI50 (HCT-116 colon): 4.64 µM
TGI (HCT-116 colon): 18.1 µM
GI50 (HCT-15 colon): 1.77 µM
TGI (HCT-15 colon): 16.1 µM
GI50 (HL-60(TB) leukemia): 5.39 µM
TGI (HL-60(TB) leukemia): 33 µM
GI50 (HOP-62 NSCLC): 8.17 µM
TGI (HOP-62 NSCLC): 29.2 µM
GI50 (HOP-92 NSCLC): 1.7 µM
TGI (HOP-92 NSCLC): 9.2 µM
GI50 (HS 578T breast): 2.76 µM
TGI (HS 578T breast): 19.1 µM
GI50 (HT29 colon): 3.61 µM
TGI (HT29 colon): 16.3 µM
GI50 (IGROV1 ovarian): 3.47 µM
TGI (IGROV1 ovarian): 30.5 µM
GI50 (K-562 leukemia): 2.22 µM
TGI (K-562 leukemia): 20.6 µM
GI50 (KM12 colon): 0.401 µM
TGI (KM12 colon): 15.5 µM
GI50 (LOX IMVI melanoma): 3.12 µM
TGI (LOX IMVI melanoma): 16.3 µM
GI50 (M14 melanoma): 1.7 µM
TGI (M14 melanoma): 16.2 µM
GI50 (MALME-3M melanoma): 2.03 µM
TGI (MALME-3M melanoma): 13.3 µM
GI50 (MCF7 breast): 4.5 µM
TGI (MCF7 breast): 18.4 µM
GI50 (MDA-MB-231 breast): 4.69 µM
TGI (MDA-MB-231 breast): 21.9 µM
GI50 (MDA-MB-435): 4.46 µM
TGI (MDA-MB-435): 21.2 µM
GI50 (MOLT-4 leukemia): 3.55 µM
TGI (MOLT-4 leukemia): 18.6 µM
GI50 (NCI-H226 lung): 3.85 µM
TGI (NCI-H226 lung): 19.1 µM
GI50 (NCI-H23 lung): 4.43 µM
TGI (NCI-H23 lung): 24.2 µM
GI50 (NCI-H460 lung): 3.85 µM
TGI (NCI-H460 lung): 19.7 µM
GI50 (NCI-H522 lung): 10.1 µM
TGI (NCI-H522 lung): 29 µM
GI50 (NCI/ADR-RES ovarian): 4.64 µM
TGI (NCI/ADR-RES ovarian): 38.8 µM
GI50 (OVCAR-3 ovarian): 7.1 µM
TGI (OVCAR-3 ovarian): 21.9 µM
GI50 (OVCAR-4 ovarian): 2.41 µM
TGI (OVCAR-4 ovarian): > 100 µM
GI50 (OVCAR-5 ovarian): 12.2 µM
TGI (OVCAR-5 ovarian): 30.2 µM
GI50 (OVCAR-8 ovarian): 4.47 µM
TGI (OVCAR-8 ovarian): 40.5 µM
GI50 (PC-3 prostate): 4.86 µM
TGI (PC-3 prostate): 28.7 µM
GI50 (RPMI-8226 leukemia): 3.84 µM
TGI (RPMI-8226 leukemia): 27.7 µM
GI50 (RXF 393 renal): 3.46 µM
TGI (RXF 393 renal): 19.5 µM
GI50 (SF-268 CNS): 9 µM
TGI (SF-268 CNS): 26.5 µM
GI50 (SF-295 CNS): 8.08 µM
TGI (SF-295 CNS): 25.3 µM
GI50 (SF-539 CNS): 1.95 µM
TGI (SF-539 CNS): 11.8 µM
GI50 (SK-MEL-2 melanoma): 4.62 µM
TGI (SK-MEL-2 melanoma): 28.6 µM
GI50 (SK-MEL-28 melanoma): 4.72 µM
TGI (SK-MEL-28 melanoma): 21.4 µM
GI50 (SK-OV-3 ovarian): 1.26 µM
TGI (SK-OV-3 ovarian): 8.14 µM
GI50 (SN12C renal): 2.48 µM
TGI (SN12C renal): 19.6 µM
GI50 (SNB-19 CNS): 7.06 µM
TGI (SNB-19 CNS): 22.9 µM
GI50 (SNB-75 CNS): 2.76 µM
TGI (SNB-75 CNS): 19 µM
GI50 (SR leukemia): 2.38 µM
TGI (SR leukemia): 23.4 µM
GI50 (SW-620 colon): 4.89 µM
TGI (SW-620 colon): 20.8 µM
GI50 (T-47D breast): 3.32 µM
TGI (T-47D breast): 20.2 µM
GI50 (TK-10 renal): 6.09 µM
TGI (TK-10 renal): 39 µM
GI50 (U251 CNS): 2.69 µM
TGI (U251 CNS): 17.7 µM
GI50 (UACC-257 melanoma): 5.37 µM
TGI (UACC-257 melanoma): 24.3 µM
GI50 (UACC-62 melanoma): 2.72 µM
TGI (UACC-62 melanoma): 16.9 µM
GI50 (UO-31 renal): 0.673 µM
TGI (UO-31 renal): 14.3 µM
